According to patent US7906655B2, “Hepatitis C virus inhibitors” (Bristol-Myers Squibb Company, priority 2008, dated 2011):

Test system: HCV 1b genotype
Assay: HCV Replicon assay (HCV-neo replicon cells, wild-type)
Type: cell-based
Conditions: HCV 1b genotype replicon
In short: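 Assay used wild-type HCV genotype 1b replicon cells carrying neo, with luciferase reporter read-outs in some formats.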

[1] = Hepatitis C virus, class symbols

O=C(Cc1ccccc1)N1CCCC[C@H]1c1nc2ccc(CCc3ccc4nc([C@@H]5CCCCN5C(=O)Cc5ccccc5)[nH]c4c3)cc2[nH]1 [Example F3, 5,5′-(1,2-ethanediyl)bis(2-((2S)-1-(phenylacetyl)-2-piperidinyl)-1H-benzimidazole)]
EC50 [1]: 100 to 999 nM

CNc1ccccc1C(=O)N1CCC[C@H]1c1nc2cc(C#Cc3ccc4[nH]c([C@@H]5CCCN5C(=O)[C@H]5CCCO5)nc4c3)ccc2[nH]1 [Example M54.11, N-methyl-2-(((2S)-2-(5-((2-((2S)-1-((2R)-tetrahydro-2-furanylcarbonyl)-2-pyrrolidinyl)-1H-benzimidazol-5-yl)ethynyl)-1H-benzimidazol-2-yl)-1-pyrrolidinyl)carbonyl)aniline]
EC50 [1]: 4.57 to 99 nM

O=C([C@H](O)c1ccccc1)N1CCC[C@H]1c1nc2cc(C#Cc3ccc4[nH]c([C@@H]5CCCN5C(=O)[C@H](O)c5ccccc5)nc4c3)ccc2[nH]1 [Example M15, (1R,1′R)-2,2′-(1,2-ethynediylbis(1H-benzimidazole-5,2-diyl(2S)-2,1-pyrrolidinediyl))bis(2-oxo-1-phenylethanol)]
EC50 [1]: < 4.57 nM

CC(=O)N1CCC[C@H]1c1nc2ccc(C#Cc3ccc4[nH]c([C@@H]5CCCN5C(=O)C5CCC5)nc4c3)cc2[nH]1 [Example M54.31, 5-((2-((2S)-1-acetyl-2-pyrrolidinyl)-1H-benzimidazol-6-yl)ethynyl)-2-((2S)-1-(cyclobutyl-carbonyl)-2-pyrrolidinyl)-1H-benzimidazole]
EC50 [1]: 4.57 to 99 nM

O=C(Cc1ccccn1)N1CCC[C@H]1c1nc2cc(C#Cc3ccc4[nH]c([C@@H]5CCCN5C(=O)Cc5ccccn5)nc4c3)ccc2[nH]1 [Example M7, 5,5′-(1,2-ethynediyl)bis(2-((2S)-1-(2-pyridinylacetyl)-2-pyrrolidinyl)-1H-benzimidazole)]
EC50 (class symbols): < 4.57 nM

COC(=O)N[C@H](C(=O)N1CCC[C@H]1c1nc2cc(-c3cnc(-c4cccc5[nH]c([C@@H]6CCCN6C(=O)[C@@H](NC(=O)OC)C(C)C)nc45)o3)ccc2[nH]1)C(C)C [Example J10, methyl ((1S)-1-(((2S)-2-(4-(5-(2-((2S)-1-((2S)-2-(methoxy-carbonyl)amino)-3-methyl-butanoyl)-2-pyrrolidinyl)-1H-benzimidazol-5-yl)-1,3-oxazol-2-yl)-1H-benzimidazol-2-yl)-1-pyrrolidinyl)carbonyl)-2-methylpropyl) carbamate]
EC50 (Hepatitis C virus, numeric values): 0.007 nM

O=C(c1cccnc1)N1CCC[C@H]1c1nc2cc(C#Cc3ccc4[nH]c([C@@H]5CCCN5C(=O)c5cccnc5)nc4c3)ccc2[nH]1 [Example M26.1, N,N′-(1,2-ethynediyl)bis(2-((2S)-1-(3-pyridinylcarbonyl)-2-pyrrolidinyl)-1H-benzimidazole)]
EC50 (class symbols): 100 to 999 nM

CC(=O)NC(C(=O)N1CCC[C@H]1c1nc2cc(-c3cnc(-c4cccc5[nH]c([C@@H]6CCCN6C(=O)C(NC(C)=O)c6ccccc6)nc45)o3)ccc2[nH]1)c1ccccc1 (mixture of isomers) [Example J12.1, N-((1R)-2-((2S)-2-(4-(5-(2-((2S)-1-((2R)-2-acetamido-2-phenylacetyl)-2-pyrrolidinyl)-1H-benzimidazol-5-yl)-1,3-oxazol-2-yl)-1H-benzimidazol-2-yl)-1-pyrrolidinyl)-2-oxo-1-phenylethyl) acetamide]
EC50 [1]: 4.57 to 99 nM

O=C(C(c1ccccc1)N1CCC(O)CC1)N1CCC[C@H]1c1nc2cc(-c3cnc(-c4cccc5[nH]c([C@@H]6CCCN6C(=O)C(c6ccccc6)N6CCC(O)CC6)nc45)o3)ccc2[nH]1 (stereo partly drawn) [Example J13, 1-(2-((2S)-2-(4-(5-(2-((2S)-1-((4-hydroxy-1-piperidinyl) (phenyl)acetyl)-2-pyrrolidinyl)-1H-benzimidazol-5-yl)-1,3-oxazol-2-yl)-1H-benzimidazol-2-yl)-1-pyrrolidinyl)-2-oxo-1-phenylethyl)-4-piperidinol]
EC50 [1]: < 4.57 nM

O=C(c1ccco1)N1CCC[C@H]1c1nc2cc(C#Cc3ccc4[nH]c([C@@H]5CCCN5C(=O)c5ccco5)nc4c3)ccc2[nH]1 [Example M26.6, 5,5′-(1,2-ethynediyl)bis(2-((2S)-1-(2-furoyl)-2-pyrrolidinyl)-1H-benzimidazole)]
EC50 [1]: 4.57 to 99 nM

O=C(C1CC1)N1CCC[C@H]1c1nc2ccc(C#Cc3ccc4[nH]c([C@@H]5CCCN5C(=O)[C@H]5CCCO5)nc4c3)cc2[nH]1 [Example M54.9, 5-((2-((2S)-1-(cyclopropyl-carbonyl)-2-pyrrolidinyl)-1H-benzimidazol-6-yl)ethynyl)-2-((2S)-1-((2R)-tetrahydro-2-furanylcarbonyl)-2-pyrrolidinyl)-1H-benzimidazole]
EC50 [1]: 4.57 to 99 nM

C[C@H](NC(=O)OCc1ccccc1)c1nc2cc(CCc3ccc4[nH]c([C@H](C)NC(=O)OCc5ccccc5)nc4c3)ccc2[nH]1 [OL1, benzyl((1S)-1-(5-(2-(2-((1)-1-(((benzyloxy)carbonyl)amino)ethyl)-1H-benzimidazol-6-yl)ethyl)-1H-benzimidazol-2-yl)ethyl)carbamate]
EC50 [1]: 4.57 to 99 nM

CC(=O)N1CCC[C@H]1c1nc2ccc(C#Cc3ccc4[nH]c([C@@H]5CCCN5C(=O)Cc5ccccc5)nc4c3)cc2[nH]1 [Example M54.16, 5-((2-((2S)-1-acetyl-2-pyrrolidinyl)-1H-benzimidazol-6-yl)ethynyl)-2-((2S)-1-(phenylacetyl)-2-pyrrolidinyl)-1H-benzimidazole]
EC50 [1]: 4.57 to 99 nM

COC(=O)N[C@@H](C)C(=O)N1[C@@H]2C[C@@H]2C[C@H]1c1nc2cc(-c3ccc(Oc4cccc5[nH]c([C@@H]6C[C@H]7C[C@H]7N6C(=O)[C@H](C)NC(=O)OC)nc45)cc3)ccc2[nH]1 [Example V8, methyl ((1S)-2-((1R,3S,5R)-3-(5-(4-((2-((1R,3S,5R)-2-(N-(methoxycarbonyl)-L-alanyl)-2-azabicyclo[3.1.0]hex-3-yl)-1H-benzimidazol-4-yl)oxy)phenyl)-1H-benzimidazol-2-yl)-2-azabicyclo[3.1.0]hex-2-yl)-1-methyl-2-oxoethyl) carbamate]
EC50 (class symbols): < 4.57 nM

O=C(Cc1ccccn1)N1CCC[C@H]1c1nc2ccc(C#Cc3ccc4[nH]c([C@@H]5CCCN5C(=O)[C@H]5CCCO5)nc4c3)cc2[nH]1 [Example M48, 5-((2-((2S)-1-(2-pyridinylacetyl)-2-pyrrolidinyl)-1H-benzimidazol-6-yl)ethynyl)-2-((2S)-1-((2R)-tetrahydro-2-furanylcarbonyl)-2-pyrrolidinyl)-1H-benzimidazole]
EC50 (class symbols): < 4.57 nM
